One assay concerns A10 smooth muscle cells. In words: Cryopreservation of A10 cells with DMSO in vehicle solution, Alamar Blue. It counts as cell-based. The settings on record: freezing and thawing. The method, then: (§1) The same system as that described above for cells in microtiter plates was used to evaluate a preferred embodiment of the exemplary High-K Intracellular-base solution as a new carrier solution for cryoprotective additives (CPA). Specifically, a phosphate-free formulation of the new High-K solution was prepared to avoid the known precipitation of divalent cation phosphates in the presence of the cryoprotectant DMSO at low temperatures. Cell survival was compared after freezing and thawing in the presence of a range of concentrations of DMSO prepared in either the new phosphate-free HK-cryoprotectant vehicle solution (HK-CV), or EuroCollins medium. EuroCollins is an organ preservation solution that has also been used in the field of cryobiology as a vehicle solution for cryoprotectants.
(§2) Cells were plated at 2×10^4 cells/well and after overnight incubation regular culture medium was replaced with the experimental CPA mixtures using the following protocol: Plates were cooled to −80° C. at a controlled rate (1° C./min) and stored overnight at −135° C. The plates were thawed using a two-step warming protocol and the CPA was diluted using mannitol as an osmotic buffer. Cell viability was assessed using the Alamar Blue assay of cellular metabolic activity at 37° C. FIGS. 15 and 16 show the comparative viability of two cell types after cryopreservation in the respective media. […]

Assay [1] relates to bovine corneal endothelial (BCE) cells. In words: Cryopreservation of BCE cells with DMSO in vehicle solution, Alamar Blue. It counts as cell-based. The settings on record: freezing and thawing. On the procedure:
as §1, §2
(In general: The colour change of resazurin is a common sign of viable cells or microbes.)

For the compound `C[S+](C)[O-]` [DMSO, Dimethylsulfoxide], the “DMSO concentration giving optimum survival” value (in the assay with A10 smooth muscle cells; in assay [1]) was 1 to 2 M in each case.
